From PMC5240995, “Lysine Decarboxylase with an Enhanced Affinity for Pyridoxal 5-Phosphate by Disulfide Bond-Mediated Spatial Reconstitution” (PLoS ONE, 2017)

Biological target: T1, SrLDC (Pseudoselenomonas ruminantium, UniProt O50657, A225C/T302C)
T1 construct: gene ldc
Assay: isothermal titration calorimetry
Assay type: binding

T1 sequence (O50657 whole entry A225C/T302C): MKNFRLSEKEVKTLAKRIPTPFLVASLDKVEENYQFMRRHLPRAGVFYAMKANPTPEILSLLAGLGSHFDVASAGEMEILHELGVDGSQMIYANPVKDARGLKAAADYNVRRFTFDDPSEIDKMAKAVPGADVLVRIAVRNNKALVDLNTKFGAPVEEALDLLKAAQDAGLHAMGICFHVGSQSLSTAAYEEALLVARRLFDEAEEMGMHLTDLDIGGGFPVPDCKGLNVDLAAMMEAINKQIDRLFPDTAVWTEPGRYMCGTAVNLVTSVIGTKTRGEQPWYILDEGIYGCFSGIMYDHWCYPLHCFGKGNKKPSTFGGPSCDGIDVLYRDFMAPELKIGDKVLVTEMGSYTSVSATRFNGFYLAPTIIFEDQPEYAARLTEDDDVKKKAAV

Compound `Cc1ncc(COP(=O)(O)O)c(C=O)c1O` [pyridoxal 5-phosphate] has a Kd of 21 µM.
